Experimental data as given in patent publication EP4782453A1 (Beyang Therapeutics Co., Ltd., priority 2023, dated 2025).
Where two headings read alike, the source gives them in different places.

How the values were obtained:
Menin-MLL = target: T1, Menin-MLL (Homo sapiens, UniProt O00255); experiment: Inhibitory activity against Menin-MLL binding (fluorescence polarization); settings: 150 nM His-Menin, 15 nM FITC-MLL, 25°C for 60 min
T1 construct: His-Menin (M1-L615 end); purchased BIORTUS BP9210
T1 sequence (O00255 1-615 isoform O00255-1): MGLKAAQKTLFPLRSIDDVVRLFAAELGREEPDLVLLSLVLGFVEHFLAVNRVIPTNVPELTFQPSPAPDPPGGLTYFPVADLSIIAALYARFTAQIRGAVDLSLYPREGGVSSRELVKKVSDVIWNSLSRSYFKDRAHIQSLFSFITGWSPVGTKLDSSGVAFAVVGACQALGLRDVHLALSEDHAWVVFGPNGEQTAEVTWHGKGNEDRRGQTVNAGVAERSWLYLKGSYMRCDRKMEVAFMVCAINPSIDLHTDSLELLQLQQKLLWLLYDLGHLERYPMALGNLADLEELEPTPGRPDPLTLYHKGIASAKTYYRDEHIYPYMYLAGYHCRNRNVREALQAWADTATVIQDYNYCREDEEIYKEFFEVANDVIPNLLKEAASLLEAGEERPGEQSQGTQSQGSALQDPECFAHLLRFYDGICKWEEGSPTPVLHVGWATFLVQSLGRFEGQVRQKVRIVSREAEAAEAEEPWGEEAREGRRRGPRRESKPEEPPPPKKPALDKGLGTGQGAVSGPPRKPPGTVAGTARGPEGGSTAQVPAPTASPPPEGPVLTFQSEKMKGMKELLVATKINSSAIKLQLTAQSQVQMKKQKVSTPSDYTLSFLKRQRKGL
How it was run: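 Fluorescence polarization competition: compound and 150 nM His-tagged menin (residues M1-L615) sit 15 min at 25 °C in pH 7.5 HEPES buffer with NaCl, DTT and BSA; 15 nM FITC-labelled MLL peptide then binds for 60 min. IC50 fitted sigmoidally from mP values, duplicate wells.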

[1] = test system: MV-4-11 (carrying MLL-AF4); experiment: Inhibition of proliferation of human tumor cells (Alamar Blue, 7 days), MV-4-11; type: cell-based; settings: Homo sapiens, MV4-11, 168 h, MV-4-11 cells (carrying MLL-AF4), method calls the value GI50
How it was run: (§1)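 GI50 from Alamar Blue fluorescence after 7-day compound exposure, duplicate wells, using Day-0 and Day-7 0.1% DMSO wells as low and high controls. MV-4-11 in IMDM/10% FBS and MOLM-13 in RPMI-1640/20% FBS at 4,000 cells/well; KG-1a in IMDM/20% FBS at 3,000 cells/well.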

KG-1a (wild-type MLL) = experiment: Inhibition of proliferation of human tumor cells (Alamar Blue, 7 days), KG-1a control cell line; type: cell-based; settings: 168 h, KG-1a cells (wild-type MLL, control cell line), method calls the value GI50
Description: Experimental Example 2: Evaluation of Inhibitory Activity of Compounds Against Proliferation of Human Tumor Cells
• Human acute lymphoblastic leukemia cells MV-4-11, purchased from American Type Culture Collection, Catalog Number: CRL-9591; • Human acute myeloid leukemia cells MOLM-13, purchased from COBIOER BIOSCIENCES CO., LTD, Catalog Number: CBP60678; • Human acute myeloid leukemia cells KG-1a, purchased from American Type Culture Collection, Catalog Number: CCL-246.1; • Inverted Microscope, purchased from Olympus Tokyo; • Countess™ Automated Cell Counter, purchased from Invitrogen, Model: C10281; and • Multilabel Reader, purchased from Bio-Tek, Model: Synergy HT.
MV-4-11 cells were cultured in an IMDM medium containing 10% fetal bovine serum, KG-a cells were cultured in an IMDM medium containing 20% fetal bovine serum, or MOLM-13 cells were cultured in an RPMI-1640 medium containing 20% fetal bovine serum, each supplemented with 100 U·mL^-1 penicillin and 100 µg·mL^-1 streptomycin. These cells were cultured at 37°C with 5% CO2. The suspensions of individual cell lines were prepared in their respective media and seeded into 96-well plates at a density of 4,000 cells/well for MV-4-11 and MOLM-13 cells, or 3,000 cells/well for KG-1a cells. On the day of the experiment, a compound stock solution was diluted in a 3-fold or 4-fold gradient using DMSO. Each gradient-diluted stock solution was then further diluted 250-fold with a complete medium to prepare a series of working solutions at different concentrations. Subsequently, 100 µL of working solution (containing a 2-fold concentration series of the test compound) was added to each well, with duplicate wells set up for each concentration.
Seven days after compound addition (on Day 7), an Alamar Blue assay reagent (MCE, HY-111391 / CS-0040317) was added to measure the fluorescence intensity in each well. Wells containing the cells in the growth medium supplemented with 0.1% DMSO (Day 7) served as high-read control wells. The readouts from the wells containing the cells in the growth medium supplemented with 0.1% DMSO on the day of compound addition (Day 0) served as low-reading control well. GraphPad Prism software was used to calculate the concentration required to inhibit 50% of cell proliferation (GI50), which serves as a cell proliferation inhibition activity index.

[2] = test system: MOLM-13 (carrying MLL-AF9); experiment: Inhibition of proliferation of human tumor cells (Alamar Blue, 7 days), MOLM-13; type: cell-based; settings: Homo sapiens, MOLM-13 cells (carrying MLL-AF9), method calls the value GI50
How it was run: as §1

[3] = Menin-MLL IC50, fluorescence polarization
[4] = fluorescence polarization, read-out: Menin-MLL IC50

IC50 (KG-1a (wild-type MLL))	IC50 (Menin-MLL; [4])	IC50 ([2]; 168 h)	SMILES	IC50 (Menin-MLL; [3])	IC50 [1]	IC50 (Menin-MLL; read-out: Menin-MLL IC50, fluorescence polarization)	IC50 ([2]; MOLM-13, 168 h)
> 20 µM	0.0125 µM	0.044 µM	Cc1nc(F)c2c(-c3ccc(F)cc3C(=O)N3CCOC[C@H]3C)cc(C3CN([C@H](CCCN4CCn5nccc5C4)C(C)C)C3)cn12 [Example 351, (3R)-4-[5-fluoro-2-(1-fluoro-3-methyl-6-{1-[(3R)-2-methyl-6-{4H,5H,6H,7H-pyrazolo[1,5-a]pyrazin-5-yl}hexan-3-yl]azacyclobutan-3-yl}imidazo[1,5-a]pyridin-8-yl)benzoyl]-3-methylmorpholine]	–	–	–	–
20 µM	0.0435 µM	–	CCN(C(=O)c1cc(F)ccc1-c1cc(N2CCC(NCc3ccc(-c4cc(OC)c(OC)nn4)cc3)CC2)cn2cncc12)C(C)C [Example 19, 2-{6-[4-({[4-(5,6-dimethoxypyridazin-3-yl)phenyl]methyl}amino)piperidin-1-yl]imidazo[1,5-a]pyridin-8-yl}-N-ethyl-5-fluoro-N-isopropylbenzamide]	–	0.049 µM	–	–
15 µM	0.0039 µM	0.0077 µM	CCN(C(=O)c1cc(F)ccc1-c1cc(C2CN([C@H](CN3CCN(C)CC3)C(C)C)C2)cn2c(C)ncc12)C(C)C [Example 403-1, N-ethyl-5-fluoro-2-(3-methyl-6-{1-[(2S)-3-methyl-1-(4-methylpiperazin-1-yl)butan-2-yl]azacyclobutan-3-yl}imidazo[1,5-a]pyridin-8-yl)-N-(isopropyl)benzamide]	–	–	–	–
11 µM	0.01 µM	0.065 µM	CCN(C(=O)c1cc(F)ccc1-c1cc(C2CN([C@H](CN3CCN(C)CC3)C(C)C)C2)cc2c1cnn2C)C(C)C [Example 402-2, N-ethyl-5-fluoro-2-(1-methyl-6-{1-[(2S)-3-methyl-1-(4-methylpiperazin-1-yl)butan-2-yl]azacyclobutan-3-yl}-1H-indazol-4-yl)-N-(isopropyl)benzamide]	–	–	–	–
12 µM	0.0019 µM	0.0053 µM	CCN(C(=O)c1cc(F)ccc1-c1cc(C2CN([C@H](CCCN3CCC(OC)CC3)C(C)C)C2)cn2c(C)ncc12)C(C)C [Example 389, N-ethyl-5-fluoro-2-(6-{1-[(3R)-6-(4-methoxypiperidin-1-yl)-2-methylhexan-3-yl]azacyclobutan-3-yl}-3-methylimidazo[1,5-a]pyridin-8-yl)-N-(isopropyl)benzamide]	–	–	–	–
> 20 µM	0.003 µM	0.022 µM	CCN(C(=O)c1cc(F)ccc1-c1cc(C2CN([C@H](CCCO)C(C)C)C2)cn2c(C)ncc12)C(C)C [Example 396, N-ethyl-5-fluoro-2-(6-{1-[(3R)-6-hydroxyl-2-methylhexan-3-yl]azacyclobutan-3-yl}-3-methylimidazo[1,5-a]pyridin-8-yl)-N-(isopropyl)benzamide]	–	–	–	–

SMILES	IC50 (KG-1a (wild-type MLL))	IC50 (Menin-MLL; [4])	IC50 ([2]; 168 h)	IC50 (Menin-MLL; [3])	IC50 [1]	IC50 (Menin-MLL; read-out: Menin-MLL IC50, fluorescence polarization)	IC50 ([2]; MOLM-13, 168 h)
CCN(C(=O)c1cc(F)ccc1-c1cc(C2CCN(C[C@H]3CC[C@H](NS(=O)(=O)CC)CC3)C2)cc2c1cnn2C)C(C)C (stereo partly drawn) [Example 15, N-ethyl-5-fluoro-2-[1-methyl-6-(1-{[(1r,4r)-4-ethanesulfonamidocyclohexyl]methyl}pyrrolidin-3-yl)-1H-indazol-4-yl]-N-isopropylbenzamide]	17 µM	–	–	0.0115 µM	0.023 µM	–	–
CCN(C(=O)c1cc(F)ccc1-c1cc(C2=CCC(NCc3ccc4oc(=O)[nH]c4c3)CC2)cn2cncc12)C(C)C (stereo not drawn) [Example 16, N-ethyl-5-fluoro-2-[6-(4-{[(2-oxo-2,3-dihydro-l,3-benzoxazol-5-yl)methyl]amino}cyclohexyl-1-ene-1-yl)imidazo[1,5-a]pyridin-8-yl]-N-isopropylbenzamide]	20 µM	–	–	–	0.014 µM	0.0145 µM	–
CC(C)[C@@H](CCCN1CCN(C)CC1)N1CC(c2cc(-c3ccc(F)cc3C(=O)N3CCOC[C@H]3C)c3cnn(C)c3c2)C1 [Example 358]	> 20 µM	–	–	0.0135 µM	–	–	0.091 µM
